Source: ChEMBL document CHEMBL1201862, “PubChem BioAssay data set” (2004)
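A five-concentration, 48-hour dose response in 96-well plates underlies each endpoint, interpolated linearly between surrounding concentrations. GI50 marks 50% less growth.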 The source made the active and inactive calls. No stated cut-off is given here; in the data, active = GI50 up to about 1.1 µM and inactive = higher.

Tests used:
Experiment in all cases: NCI tumour cell line growth inhibition, 48 h
[1] = system: 786-0
[2] = system: A549
[3] = system: DU-145
[4] = system: EKVX
[5] = system: HOP-62
[6] = system: Hs-578T
[7] = system: K562
[8] = system: KM12
[9] = system: M14
[10] = system: MDA-MB-231
[11] = system: MOLT-4
[12] = system: NCI-H522
[13] = system: PC-3
[14] = system: RPMI-8226
[15] = system: SF-295
[16] = system: SF-539
[17] = system: SNB-19
[18] = system: UACC-257
[19] = system: UACC-62

Measured: GI50

CC(C)(C)C1=NN=C2c3ccccc3C(=O)C21 (stereo not given)
inactive: [1] 99.5 µM | [2] 45.1 µM | [3] 31.3 µM | [4] 27.4 µM | [5] > 100 µM | [6] 20.7 µM | [7] 35.2 µM | [8] 18.9 µM | [9] 76.6 µM | [10] 40.4 µM | [11] 22.4 µM | [12] 35.4 µM | [13] 35.6 µM | [14] 32.1 µM | [15] 39.1 µM | [16] 38.4 µM | [17] 91.2 µM | [18] 62.7 µM | [19] 27.4 µM

S=C1N=C(Cl)/C(=C\c2ccco2)N1
inactive: [1] > 100 µM | [2] > 100 µM | [3] > 100 µM | [4] > 100 µM | [5] > 100 µM | [6] > 100 µM | [7] > 100 µM | [8] > 100 µM | [9] > 100 µM | [10] > 100 µM | [11] > 10 µM | [12] 33.7 µM | [13] > 100 µM | [14] > 100 µM | [15] > 100 µM | [16] > 100 µM | [17] > 100 µM | [18] > 100 µM | [19] > 100 µM

OCCN(CCO)c1ccc2c(-c3ccccc3)cc(N(CCO)CCO)nc2n1
inactive: [1] > 100 µM | [2] > 100 µM | [3] > 100 µM | [4] > 100 µM | [5] > 100 µM | [6] > 100 µM | [7] > 100 µM | [8] > 100 µM | [9] > 100 µM | [10] > 100 µM | [11] > 100 µM | [12] > 100 µM | [13] > 100 µM | [14] > 100 µM | [15] > 100 µM | [17] > 100 µM | [18] > 100 µM | [19] > 100 µM

O=C1CC(c2ccccc2)n2cccc21 (stereo not given)
inactive: [1] > 100 µM | [2] > 100 µM | [3] > 100 µM | [4] > 100 µM | [5] > 100 µM | [6] > 100 µM | [7] > 100 µM | [8] > 100 µM | [9] > 100 µM | [10] > 100 µM | [11] > 10 µM | [12] > 100 µM | [13] > 100 µM | [14] > 100 µM | [15] > 100 µM | [16] > 100 µM | [17] > 100 µM | [18] > 100 µM | [19] > 100 µM
